Laboratory results: US11497787B2, “Functionalized poly-ADP-ribose polymers for drug delivery” (University of Southern California, priority 2019, dated 2022)
Where two headings read alike, the source gives them in different places.

What was measured:
[1] = target: T1, purified human full-length PARP1 (Homo sapiens, UniProt P09874); assay: HPLC-based kinetic assay, NADase activity; format: biochemical; conditions: hydrolysis catalyzed by PARP1, 30° C.
T1 construct: His6 (C); made in house; host or cells: E. coli BL21 (DE3), pET-28a(+)
Procedure: (§1) High-performance Liquid Chromatography (HPLC)-based Kinetic Assays. Auto-PARylation of PARP1 was carried out in 80 μL assay solutions (30 mM HEPES, pH 8.0, 5 mM MgCl2, 5 mM CaCl2, 1 mM DTT, 100 ng/μL of activated DNA, 100 ng/μL BSA) containing varied concentrations of NAD^+ (50, 100, 250, 450, 600, and 750 μM) or NAD^+ analogues (2, 6; see Table 1) at 30° C. with purified PARP1 enzymes. The reactions were quenched at different time points (NAD^+: 0, 2.5, 5, 10, 15, and 20 min; 2: 0, 60, 120, 180, 240, and 300 min; 6: 0, 5, 10, 15, 20 and 30 min) using 20% ice-cold TCA. After centrifugation, the reaction mixtures were analyzed by reverse phase HPLC using a semipreparative C18 Kinetex column (5 μm, 100 Å, 150×10.0 mm, from Phenomenex Inc, Torrance, Calif.) (mobile phase A: 0.1% formic acid (aq); mobile phase B: 0.1% formic acid in acetonitrile; flow rate=2.0 ml/min; 0-8 min: 0% B, 8-12 min: 0-50% B, 12-13 min: 50-2.5% B, 13-18 min: 2.5-40% B, 18-20 min: 40-0% B) with detection of UV absorbance at 260 nm. […] NADase reaction rates were determined based on the increase in peak areas of the assigned peaks of ADPr and ADPr analogues, while reaction rates for PARP activities were measured based on the decrease in peak areas of the assigned peaks of NAD^+ and NAD^+ analogues excluding NADase activity. […]

[2] = target: T1, purified human full-length PARP1; assay: HPLC-based kinetic assay, PARP activity (auto-PARylation); format: biochemical; conditions: substrate of PARP1, 30° C.
Procedure: as §1

wild type PARP1 = wild type PARP1 (Homo sapiens, UniProt P09874); assay: Automodification and click-chemistry based immunoblot activity analysis
Procedure: Automodification and Immunoblotting Activity Analysis. […] 20 μL of the reaction was taken out and saved for SDS-PAGE analysis. The remaining reaction mixtures were further labeled with azide-biotin (for 1-4) or phosphine-PEG3-Biotin (for 5 and 6) through copper(I)-catalyzed azide alkyne cycloaddition (CuAAC) and Staudinger reaction. The CuAAC reactions were performed for one hours at room temperature in 40 μL volume, which contain 30 μL PARP1 automodification mixtures, 2 mM THPTA, 1 mM CuSO4, 100 μM azide-biotin, and 10 mM sodium ascorbate in PBS. […] The levels of auto-PARylation were evaluated by immunoblots using a streptavidin-HRP conjugate for detection of the biotinylated PARP1 via click chemistry and Staudinger reaction.

[3] = target: T1, purified human full-length PARP1; conditions: literature value; read-out: Km with PARP1, previously reported value; cited from earlier work

T1 sequence (P09874 whole entry): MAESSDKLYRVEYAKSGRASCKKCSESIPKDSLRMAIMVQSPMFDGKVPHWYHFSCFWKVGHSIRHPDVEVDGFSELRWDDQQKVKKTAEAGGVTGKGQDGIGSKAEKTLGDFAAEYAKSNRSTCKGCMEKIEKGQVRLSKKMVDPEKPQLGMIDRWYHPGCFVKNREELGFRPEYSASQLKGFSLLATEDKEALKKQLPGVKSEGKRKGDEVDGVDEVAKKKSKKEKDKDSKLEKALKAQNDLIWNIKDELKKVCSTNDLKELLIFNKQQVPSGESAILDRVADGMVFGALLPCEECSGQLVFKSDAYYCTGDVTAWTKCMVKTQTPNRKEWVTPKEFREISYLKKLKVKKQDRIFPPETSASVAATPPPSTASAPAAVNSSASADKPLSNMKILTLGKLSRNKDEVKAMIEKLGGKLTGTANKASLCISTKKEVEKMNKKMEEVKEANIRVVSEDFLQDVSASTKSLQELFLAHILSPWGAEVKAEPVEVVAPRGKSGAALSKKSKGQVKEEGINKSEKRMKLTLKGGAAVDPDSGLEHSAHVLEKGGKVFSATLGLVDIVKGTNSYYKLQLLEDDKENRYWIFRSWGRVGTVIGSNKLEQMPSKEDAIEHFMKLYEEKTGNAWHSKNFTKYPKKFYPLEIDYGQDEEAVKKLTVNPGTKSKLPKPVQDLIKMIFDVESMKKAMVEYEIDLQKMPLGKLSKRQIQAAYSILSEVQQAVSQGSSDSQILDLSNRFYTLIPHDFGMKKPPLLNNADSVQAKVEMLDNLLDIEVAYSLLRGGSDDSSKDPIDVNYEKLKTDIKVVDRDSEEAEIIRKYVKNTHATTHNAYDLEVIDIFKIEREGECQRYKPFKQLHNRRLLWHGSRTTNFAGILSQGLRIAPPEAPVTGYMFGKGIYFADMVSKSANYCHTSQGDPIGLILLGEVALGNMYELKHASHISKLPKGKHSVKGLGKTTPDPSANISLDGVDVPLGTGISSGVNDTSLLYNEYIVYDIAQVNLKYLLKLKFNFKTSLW
Sequence of wild type PARP1 (P09874 whole entry): as above

Structure (SMILES) | Km [1] [µM] | kcat, NADase activity [1] [s⁻¹] | Km [2] [µM] | kcat, PARP activity [2] [s⁻¹] | PARP1 automodification signal (substrate use), biotinylation-based immunoblot (wild type PARP1; 250 μM NAD^+ or analogue, 5 μM PARP1, 30° C., 2 hours) | Km [3] [µM] | suppression of PARP1 catalytic activity / automodification signal (wild type PARP1; automodification with NAD2 and NAD6, versus no-inhibitor controls)
NC(=O)c1ccc[n+]([C@@H]2O[C@H](COP(=O)([O-])OP(=O)(O)OC[C@H]3O[C@@H](n4cnc5c(N)ncnc54)[C@H](O)[C@@H]3O)[C@@H](O)[C@H]2O)c1 [NAD^+, nicotinamide adenine dinucleotide] | 472 ± 187 | 0.0065 ± 0.0013 | 145 ± 36 | 0.0783 ± 0.0067 | no automodification signals | 97 ± 7 | –
C[C@]1(c2nc3c(C(N)=O)cccc3[nH]2)CCCN1 [veliparib] | – | – | – | – | – | – | potently suppressed
